Data as given in article PMC6505672, “Conformational change of Sos-derived proline-rich peptide upon binding Grb2 N-terminal SH3 domain probed by NMR” (Scientific Reports, 2013).
Values joined by “and” are separate entries in the source; they are usually repeats but may differ in a detail not shown here. Equal values may be shown once.

What was measured:
[1] = molecular target: T1, Grb2 N-terminal SH3 (nSH3) domain (Homo sapiens, UniProt P62993); test: Minor (cis Xaa-Pro) peaks in 1H-13Cα HSQC, Grb2 nSH3-bound state; format: physicochemical; settings: PBS in 2H2O, 25°C
T1 construct: The plasmid to express the Grb2 nSH3 domain (residues 1–57) was constructed by using a pGEX-6P expression vector; GST (N, cleaved yes); made in house; host or cells: E. coli BL21 (DE3)
Method: The relative intensities of the minor peaks with respect to the major peaks for these residues were 10% for Val1, 3% for Pro2, 14% for Pro4, 10% for Val5, and 6% for Pro6.
The buffer system for NMR experiments was PBS in ^2H2O. […] Data were processed using the NMRPipe/NMRDraw software package. Peak picking and spectral analysis were performed using the Sparky program. Conformational analyses based on chemical shifts were conducted using the Random Coil Index (RCI) program[19] on the web server (http://randomcoilindex.com/).

[2] = molecular target: T1, Grb2 N-terminal SH3 (nSH3) domain; test: 13Cα CPMG relaxation dispersion of VPP peptide with Grb2 nSH3; format: binding
Method: Non-labelled VPP (10 mM) peptide mixed with 0.25 mM Grb2 nSH3 dissolved in ^2H2O solvent was subjected to ^13Cα relaxation dispersion experiments.
The global exchange parameters of the exchange rate, kex; the fractional population of the minor state, Pb were calculated from the dispersion curves of Val5 and Arg8. Then, the chemical shift difference between two states, Δω; the target function of fitting error, χ^2; and the nonexchangeable contribution of R2,eff, R2,0 for each residue were calculated using the global exchange parameters based on a two-state exchange model. […] The exchange rate kex is defined as kex = kon[P] + koff, where [P] is the concentration of the protein. In this experimental condition, [P] is assumed to be zero because the concentration of the ligand is much higher than that of the protein. Thus, kex = koff. The affinity of the ligand to the protein, i.e., Kd, is defined as Kd = koff/kon. If kon is diffusion-controlled, kon ~ 10^8 M^−1s^−1. […] However, as reported by Lundström et al. Cα and Cβ atoms of valine are simultaneously incorporated to the final products from [^13C-2]-glucose as a sole carbon source by using an E.coli expression system. Thus, isolated ^13Cα-selective labelled valine residues cannot be prepared for this experimental purpose.
Two-dimensional ^1H-^13C correlated spectra were collected as series of data sets with CPMG frequencies (νCPMG) of 30, 60, 120, 180, 300, 450, and 600 Hz. The constant-time relaxation delay Trelax was set to 66.7 ms. Spectra were recorded as 62 × 600 complex points with a 2.6-s repetition delay and 32 scans for each increment. The total experimental time was 24 h for both 600 and 500 MHz spectrometers.
Peak intensities of the ^13Cα relaxation dispersion data were quantified using the Sparky program. The transverse relaxation constant, R2,eff, for each νCPMG frequency was calculated as R2,eff = −ln(I(νCPMG)/I0)/Trelax, where I(νCPMG) is the peak intensity obtained for a given value of νCPMG and I0 is the peak intensity obtained when the CPMG block is omitted. The CPMG dispersion curves were fitted numerically as a two-state exchange model using an in-house program described elsewhere. The fitting calculation extracted the following terms as the global parameters: the exchange rate, kex; the fractional population of the minor state, Pb; and the residue specific parameters, including the magnitude of the chemical shift difference between two states, Δω; the target function of fitting error, χ^2; and the nonexchangeable contribution of R2,eff, R2,0.

[3] = design: method as in earlier work; settings: free state, cited from earlier work
[4] = 13Cα CPMG relaxation dispersion of free VPP peptide (Grb2 nSH3 absent); format: physicochemical; settings: 25°C
Method: The global exchange parameters of the exchange rate, kex; the fractional population of the minor state, Pb were calculated from the dispersion curves of Val5 and Arg8. Then, the chemical shift difference between two states, Δω; the target function of fitting error, χ^2; and the nonexchangeable contribution of R2,eff, R2,0 for each residue were calculated using the global exchange parameters based on a two-state exchange model. […] The kex values were slightly larger than the Δω values, indicating a fast or intermediate exchange process on the chemical shift time scale. The exchange rate kex is defined as kex = kon[P] + koff, where [P] is the concentration of the protein. […]
Two-dimensional ^1H-^13C correlated spectra were collected as series of data sets with CPMG frequencies (νCPMG) of 30, 60, 120, 180, 300, 450, and 600 Hz. […] Spectra were recorded as 62 × 600 complex points with a 2.6-s repetition delay and 32 scans for each increment. […]
Peak intensities of the ^13Cα relaxation dispersion data were quantified using the Sparky program. The transverse relaxation constant, R2,eff, for each νCPMG frequency was calculated as R2,eff = −ln(I(νCPMG)/I0)/Trelax, where I(νCPMG) is the peak intensity obtained for a given value of νCPMG and I0 is the peak intensity obtained when the CPMG block is omitted. […]

[5] = system: Grb2 nSH3; settings: single alanine substitution, ITC; cited from earlier work
[6] = molecular target: Sos-derived VPP peptide (Homo sapiens) (UniProt Q07889); settings: cited from earlier work

T1 sequence (P62993 1-57): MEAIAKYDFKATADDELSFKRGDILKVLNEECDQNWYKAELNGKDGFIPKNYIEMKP
Sequence of Grb2 nSH3 (from UniProt P62993) (P62993 1-58): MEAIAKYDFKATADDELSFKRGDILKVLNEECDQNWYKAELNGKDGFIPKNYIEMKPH

Compound	minor (cis) peaks in bound state [1]	population of the minor state (Pb), in percent ([2]; 10 mM peptide, 0.25 mM Grb2 nSH3, 25°C, bound population expected from sample 2.5%)	exchange rate, kex ([2]; global fit of Val5 and Arg8, two-state exchange model, 10 mM VPP peptide, 0.25 mM Grb2 nSH3, PBS in 2H2O, 25°C, 11.7 and 14.1 T, kex = koff assumed)	fractional population of the minor state, Pb ([2]; global fit of Val5 and Arg8, two-state model, 10 mM peptide, 0.25 mM Grb2 nSH3, 25°C, as fraction)	significant relaxation dispersion ([2]; presence of Grb2 nSH3, 11.7 and 14.1 T, 25°C)	Δω ([2]; range over all residues, 13Cα, relaxation dispersion)	Δω ([2]; residue P3, 13Cα shift difference between two states from relaxation dispersion fit, 25°C)	Δω ([2]; residue R8, 13Cα shift difference between two states from relaxation dispersion fit, 25°C)	Δω ([2]; residue R9, 13Cα shift difference between two states from relaxation dispersion fit, 25°C)	Δω ([2]; residue R10, 13Cα shift difference between two states from relaxation dispersion fit, 25°C)	Δω ([2]; residue V5, 13Cα shift difference between two states from relaxation dispersion fit, 25°C)	Δω ([2]; residues P4/P7 (overlapped), 13Cα shift difference between two states from relaxation dispersion fit, 25°C)	PPII helix structure ([3]; NMR and circular dichroism)	minor (cis) conformation [3]	relaxation dispersion curves [4]	residues critical for interaction with Grb2 nSH3 [5]	Kd [6]
CC(C)C[C@H](NC(=O)[C@@H]1CCCN1C(=O)CN)C(=O)NCC(=O)N[C@@H](CO)C(=O)N[C@H](C(=O)N1CCC[C@H]1C(=O)N1CCC[C@H]1C(=O)N1CCC[C@H]1C(=O)N[C@H](C(=O)N1CCC[C@H]1C(=O)N1CCC[C@H]1C(=O)N[C@@H](CCCNC(=N)N)C(=O)N[C@@H](CCCNC(=N)N)C(=O)N[C@@H](CCCNC(=N)N)C(=O)O)C(C)C)C(C)C [VPP peptide]	lack of minor peaks in the bound state	~ 2.6%	1037.87 s⁻¹	0.026	Significant dispersion was only observed for Val5 and Arg8 and not for the other residues	0–1.5 ppm	0.09 ± 0.18 ppm	1.53 ppm and 1.53 ± 0.42 ppm	0.23 ± 0.20 ppm	0.13 ± 0.17 ppm	1.47 ppm and 1.47 ± 0.52 ppm	0.00 ± 0.16 ppm	~ 60%	9%	the dispersion curves were flat	Pro3, Val5, Pro6, and Arg8 of the VPP peptide are critical for interaction with Grb2 nSH3	
Grb2 nSH3 (from UniProt P62993)																	3.5 µM
